Data from patent US6136781A, “LH-RH receptor antagonists” (Takeda Chemical Industries, Ltd., priority 1995, dated 2000).
Read-outs that look alike come from different tables or passages of the source.

Conditions: amide bond, DMF
[1] = 15-membered ring, ONB active ester/DIEA, 1.06 mM, 5 steps
[2] = 15-membered ring, DIEA (active ester), 0.88 mM, 4 steps

## cyclo(-D-Leu-Lys(SO2 Nap(1))-D-Tyr-Arg-D-Trp-)
15-membered ring, ONB active ester/DIEA, 3.3 mM, 5 steps
  ring closure, yield after HPLC: 52.2%

## cyclo(-Arg-D-Glu(NHCH2 CH2 Ph)-Lys(COPh)-D-Trp-Leu-)
15-membered ring, DIEA (active ester), 3.63 mM, 5 steps
  ring closure, yield after HPLC: 57.6%

## Cc1ccc(S(=O)(=O)NC(=N)NCCC[C@H]2NC(=O)[C@H](C)NC(=O)[C@H](Cc3c[nH]c4ccccc34)NC(=O)[C@@H](C)NC(=O)[C@H](Cc3ccccc3)NC2=O)cc1 [cyclo(-Ala-D-Arg(Tos)-Phe-D-Ala-Trp-)]
From H-Trp-Ala-dArg(Tos)-Phe-dAla-OH, 15-membered ring, PyBOP/DIEA, 25.0 °C, 2 steps
  ring closure, yield after HPLC: 21.8%

## cyclo(-Lys(isopropyl)-D-Glu(NHCH2 CH2 Ph)-Tyr-D-Lys(Nic)-Leu-)
15-membered ring, ONB active ester/DIEA, 1.19 mM, 5 steps
  ring closure, yield after HPLC: 44.3%

## cyclo (-Arg-D-Lys (COCH2 CH2 CH2 CH2 CH2 Ph)-Tyr-D-Trp-Leu-)
15-membered ring, DIEA (active ester), 3.12 mM, 5 steps
  ring closure, yield after HPLC: 26.8%

## cyclo(-Leu-D-Arg-Lys(SO2 Nap(1)-D-Tyr-Trp-)
15-membered ring, DIEA, 1.1 mM, 5 steps
  ring closure, yield after HPLC: 21.1%

## cyclo(-Arg-D-Glu(NHCH2 CH2 Ph)-Tyr-D-Trp-Leu-)
15-membered ring, DIEA (active ester), 0.9 mM, 4 steps
  ring closure, yield after HPLC: 30.9%

## Cc1ccc(S(=O)(=O)NC(=N)NCCC[C@@H]2NC(=O)[C@H](Cc3ccccc3)NC(=O)[C@H](Cc3c[nH]c4ccccc34)NC(=O)[C@@H](C)NC(=O)[C@H](Cc3ccccc3)NC2=O)cc1 [cyclo(-Phe-Arg(Tos)-Phe-D-Ala-Trp-)]
From H-Trp-Phe-Arg(Tos)-Phe-dAla-OH, 15-membered ring, PyBOP/DIEA, 25.0 °C, 2 steps
  ring closure, yield after HPLC: 71.5%

## cyclo(-Arg-D-Glu(NHCH2 CH2 Ph)-Tyr-D-Trp-Phe-)
15-membered ring, ONB active ester/DIEA, 1.08 mM, 5 steps
  ring closure, yield after HPLC: 37%

## Cc1ccc(S(=O)(=O)NC(=N)NCCC[C@H]2NC(=O)[C@H](c3ccccc3)NC(=O)[C@H](Cc3c[nH]c4ccccc34)NC(=O)[C@@H](CO)NC(=O)[C@H](Cc3ccccc3)NC2=O)cc1 [cyclo(-Phg-D-Arg(Tos)-Phe-D-Ser-Trp-)]
From H-dSer-Trp-Phg-dArg(Tos)-Phe-OH, 15-membered ring, PyBOP/DIEA, 25.0 °C, 2 steps
  ring closure, yield after HPLC: 15.7%

## cyclo(-Arg-D-Glu((2)-Pyp)-Tyr-D-Trp-Leu-)
15-membered ring, DIEA (active ester), 1.1 mM, 4 steps
  ring closure, yield after HPLC: 12.1%

## cyclo(-Arg-D-Lys(SO2 Nap(2))-Trp-D-Trp-Leu-)
15-membered ring, HONB/DCC preactivation, DIEA, 2.47 mM, 5 steps
  ring closure, yield after HPLC: 27.1%

## Cc1ccc(S(=O)(=O)NC(=N)NCCC[C@H]2NC(=O)[C@H](c3ccccc3)NC(=O)[C@H](Cc3ccccc3)NC(=O)[C@@H](C)NC(=O)[C@H](Cc3ccccc3)NC2=O)cc1 [cyclo(-Phg-D-Arg(Tos)-Phe-D-Ala-Phe-)]
From H-Phe-Phg-dArg(Tos)-Phe-dAla-OH, 15-membered ring, PyBOP/DIEA, 25.0 °C, 2 steps
  ring closure, yield after HPLC: 13.1%

## Cc1ccc(S(=O)(=O)NC(=N)NCCC[C@H]2NC(=O)[C@H](Cc3ccccc3)NC(=O)[C@H](Cc3c[nH]c4ccccc34)NC(=O)[C@@H](CC(C)C)NC(=O)[C@H](Cc3ccccc3)NC2=O)cc1 [cyclo(-Phe-D-Arg(Tos)-Phe-D-Leu-Trp-)]
From H-dLeu-Trp-Phe-dArg(Tos)-Phe-OH, 15-membered ring, PyBOP/DIEA, 25.0 °C, 2 steps
  ring closure, yield after HPLC: 29.4%

## COc1cc(C)c(S(=O)(=O)NC(=N)NCCC[C@H]2NC(=O)[C@H](Cc3ccccc3)NC(=O)[C@H](Cc3c[nH]c4ccccc34)NC(=O)[C@@H](C)NC(=O)[C@H](Cc3ccccc3)NC2=O)c(C)c1C [cyclo(-Phe-D-Arg(Mtr)-Phe-D-Ala-Trp-)]
From H-dAla-Trp-Phe-dArg(Mtr)-Phe-OH, 15-membered ring, PyBOP/DIEA, 1.0 mM, 25.0 °C, 2 steps
  ring closure, yield after HPLC: 5.8%

## cyclo(-Arg-D-Lys-Tyr-D-Trp-Leu-)
15-membered ring, HONB/DCC preactivation, DIEA, 0.94 mM, 5 steps
  ring closure, yield after HPLC: 11.7%

## cyclo(-Lys-D-Glu(Php)-Tyr-D-Trp-Leu-)
15-membered ring, DIEA (active ester), 1.11 mM, 5 steps
  ring closure, yield after HPLC: 23.5%

## cyclo(-D-Tyr-Arg-D-Trp-Leu-D-Lys(SO2 Nap(1))-)
15-membered ring, DIEA (active ester), 3.28 mM, 5 steps
  ring closure, yield after HPLC: 54.3%

## cyclo(-Arg-D-Glu((4)-MeOPhp)-Tyr-D-Trp-Leu-)
15-membered ring, DIEA (active ester), 1.07 mM, 5 steps
  ring closure, yield after HPLC: 24.4%

## cyclo(-Arg-D-Lys(Ac)-Tyr-D-Trp-Leu-)
15-membered ring, ONB active ester/DIEA, 1.36 mM, 5 steps
  ring closure, yield after HPLC: 23.9%

## cyclo(-Arg-D-Trp-Tyr-D-Trp-Leu-)
15-membered ring, HONB/DCC preactivation, DIEA, 1.01 mM, 5 steps
  ring closure, yield after HPLC: 11.5%

## cyclo(-Arg-D-Glu(NHCH2 CH2 Ph)-Asp (NHCH2 Ph)-D-Trp-Leu-)
15-membered ring, DIEA (active ester), 2.67 mM, 5 steps
  ring closure, yield after HPLC: 6.72%

## cyclo(-Arg-Glu(Php)-Tyr-D-Trp-Leu-)
15-membered ring, DIEA (active ester), 1.1 mM, 5 steps
  ring closure, yield after HPLC: 22.7%

## cyclo(-Arg-D-Lys(SO2 Nap(1))-Tyr-D-Trp-Leu-)
[1]
  ring closure, yield after HPLC: 30%

## Cc1ccc(S(=O)(=O)NC(=N)NCCC[C@H]2NC(=O)[C@H](Cc3ccccc3)NC(=O)[C@H](Cc3c[nH]c4ccccc34)NC(=O)[C@@H](C)NC(=O)[C@H](Cc3ccc(Cl)cc3)NC2=O)cc1 [cyclo(-Phe-D-Arg(Tos)-pClPhe-D-Ala-Trp-)]
From H-Trp-Phe-dArg(Tos)-pClPhe-dAla-OH, 15-membered ring, PyBOP/DIEA, 25.0 °C, 2 steps
  ring closure, yield after HPLC: 50.5%

## cyclo(-Tyr-D-Trp-Leu-Arg-Trp-Pro-)
18-membered ring, DIEA, 1.0 mM, 5 steps
  ring closure, yield after HPLC: 15.3%

## cyclo(-Arg-D-Glu(NHCH2 Ph)-Tyr-D-Trp-Leu-)
15-membered ring, DIEA (active ester), 0.91 mM, 4 steps
  ring closure, yield after HPLC: 27.1%

## cyclo(-Arg-D-Glu(Bzlp)-Tyr-D-Trp-Leu-)
15-membered ring, DIEA (active ester), 1.09 mM, 4 steps
  ring closure, yield after HPLC: 21.6%

## Cc1ccc(S(=O)(=O)NC(=N)NCCC[C@H]2NC(=O)[C@H](Cc3ccccc3)NC(=O)[C@H](Cc3c[nH]c4ccccc34)NC(=O)[C@@H](C)NC(=O)[C@H](Cc3ccc(F)cc3)NC2=O)cc1 [cyclo(-Phe-D-Arg(Tos)-pFPhe-D-Ala-Trp-)]
From H-Trp-Phe-dArg(Tos)-pFPhe-dAla-OH, 15-membered ring, PyBOP/DIEA, 25.0 °C, 2 steps
  ring closure, yield after HPLC: 65.6%

## cyclo(-Arg-D-Glu(Php)-Tyr-D-Trp-Leu-)
[2]
  ring closure, yield after HPLC: 71.7%

## cyclo(-Arg-D-Lys(COCH2 Ph)-Tyr-D-Trp-Leu-)
15-membered ring, ONB active ester/DIEA, 0.89 mM, 5 steps
  ring closure, yield after HPLC: 30.6%

## Cc1ccc(S(=O)(=O)NC(=N)NCCC[C@H]2NC(=O)[C@H](Cc3ccc(Cl)cc3)NC(=O)[C@H](Cc3c[nH]c4ccccc34)NC(=O)[C@@H](C)NC(=O)[C@H](Cc3ccccc3)NC2=O)cc1 [cyclo(-pClPhe-D-Arg(Tos)-Phe-D-Ala-Trp-)]
From H-Trp-pClPhe-dArg(Tos)-Phe-dAla-OH, 15-membered ring, PyBOP/DIEA, 25.0 °C, 2 steps
  ring closure, yield after HPLC: 7.5%

## cyclo(-Arg-Lys(SO2 Nap(2))-Tyr-D-Trp-Leu-)
[1]
  ring closure, yield after HPLC: 48.3%

## cyclo(-Arg-D-Glu(NHCH2 Nap(1))-Tyr-D-Trp-Leu-)
[2]
  ring closure, yield after HPLC: 56.7%

## Cc1ccc(S(=O)(=O)NC(=N)NCCC[C@H]2NC(=O)[C@H](Cc3ccccc3)NC(=O)[C@H](Cc3c[nH]c4ccccc34)NC(=O)[C@@H](C)NC(=O)[C@H](Cc3ccccc3)NC2=O)cc1 [cyclo(-Phe-D-Arg(Tos)-Phe-D-Ala-Trp-)]
From H-Trp-Phe-dArg(Tos)-Phe-dAla-OH, 15-membered ring, PyBOP/DIEA, 25.0 °C, 2 steps
  ring closure, yield after HPLC: 10.8%

## cyclo(-Arg-D-Glu(NHCHPh2)-Tyr-D-Trp-Leu-)
15-membered ring, DIEA (active ester), 0.86 mM, 4 steps
  ring closure, yield after HPLC: 26.1%

## cyclo(-Arg-D-Lys(CoPh)-Tyr-D-Trp-Leu-)
15-membered ring, ONB active ester/DIEA, 2.62 mM, 5 steps
  ring closure, yield after HPLC: 32.7%

## cyclo(-Arg-D-Glu((2)-MeOPhp)-Tyr-D-Trp-Leu-)
15-membered ring, DIEA (active ester), 1.07 mM, 4 steps
  ring closure, yield after HPLC: 9.2%

## Cc1ccc(S(=O)(=O)NC(=N)NCCC[C@H]2NC(=O)[C@H](c3ccccc3)NC(=O)[C@H](Cc3c[nH]c4ccccc34)NC(=O)[C@@H](C)NC(=O)[C@H](Cc3ccccc3)NC2=O)cc1 [cyclo(-Phg-D-Arg(Tos)-Phe-D-Ala-Trp-)]
From H-dAla-Trp-Phg-dArg(Tos)-Phe-OH, 15-membered ring, PyBOP/DIEA, 25.0 °C, 2 steps
  ring closure, yield after HPLC: 28.3%

## cyclo(-Thg(2)-D-Arg(Tos)-Phe-D-Ala-Trp-)
15-membered ring, PyBOP/DIEA, 25.0 °C
  ring closure, yield after HPLC: 13.8%

## cyclo(-Arg-D-Glu(NHCH2 CH2 Ph)-Tyr-D-Trp-Trp-)
15-membered ring, ONB active ester/DIEA, 1.33 mM, 5 steps
  ring closure, yield after HPLC: 14.8%

## Cc1ccc(S(=O)(=O)NC(=N)NCCC[C@H]2NC(=O)[C@H](Cc3ccccc3)NC(=O)[C@H](Cc3c[nH]c4ccccc34)NC(=O)[C@@H](C)NC(=O)[C@H](Cc3ccc4ccccc4c3)NC2=O)cc1 [cyclo(-Phe-D-Arg(Tos)-Nal(2)-D-Ala-Trp-)]
From H-Trp-Phe-dArg(Tos)-Nal(2)-dAla-OH, 15-membered ring, PyBOP/DIEA, 25.0 °C, 2 steps
  ring closure, yield after HPLC: 15.5%

## Cc1ccc(S(=O)(=O)NC(=N)NCCC[C@H]2NC(=O)[C@H](Cc3ccc(F)cc3)NC(=O)[C@H](Cc3c[nH]c4ccccc34)NC(=O)[C@@H](C)NC(=O)[C@H](Cc3ccccc3)NC2=O)cc1 [cyclo(-pFPhe-D-Arg(Tos)-Phe-D-Ala-Trp-)]
From H-Trp-pFPhe-dArg(Tos)-Phe-dAla-OH, 15-membered ring, PyBOP/DIEA, 25.0 °C, 2 steps
  ring closure, yield after HPLC: 58.8%

## cyclo(-Arg-D-Glu(NHCH2 CH2 Ph)-Lys(COPh)-D-Trp-Phe-)
15-membered ring, ONB active ester/DIEA, 1.28 mM, 5 steps
  ring closure, yield after HPLC: 5.7%
